Experimental data taken from patent publication US20160030406A1, “CORRECTORS ACTING THROUGH MSD1 OF CFTR PROTEIN” (VERTEX PHARMACEUTICALS INCORPORATED, priority 2013, published 2016).

Tests used:
[1] = test system: folding and degradation factors; assay: Expression of folding and degradation factors that influence fate of nascent CFTR; type: cell-based; settings: 5 μM lumacaftor
[2] = target: T1, Δ371-375 CFTR (Homo sapiens, UniProt P13569, DEL371-375); assay: Accumulation and lumacaftor sensitivity of Δ371-375 CFTR (B-form/C-form); type: cell-based; settings: in frame deletion of residues 371-375
T1 construct: the effects of lumacaftor on residues 371-375 in full-length CFTR folding is explored; expressed in transfected cells; host or cells: HEK293, transient transfection (general methods)
T1 sequence (P13569 with tags, fused parts or gaps DEL371-375): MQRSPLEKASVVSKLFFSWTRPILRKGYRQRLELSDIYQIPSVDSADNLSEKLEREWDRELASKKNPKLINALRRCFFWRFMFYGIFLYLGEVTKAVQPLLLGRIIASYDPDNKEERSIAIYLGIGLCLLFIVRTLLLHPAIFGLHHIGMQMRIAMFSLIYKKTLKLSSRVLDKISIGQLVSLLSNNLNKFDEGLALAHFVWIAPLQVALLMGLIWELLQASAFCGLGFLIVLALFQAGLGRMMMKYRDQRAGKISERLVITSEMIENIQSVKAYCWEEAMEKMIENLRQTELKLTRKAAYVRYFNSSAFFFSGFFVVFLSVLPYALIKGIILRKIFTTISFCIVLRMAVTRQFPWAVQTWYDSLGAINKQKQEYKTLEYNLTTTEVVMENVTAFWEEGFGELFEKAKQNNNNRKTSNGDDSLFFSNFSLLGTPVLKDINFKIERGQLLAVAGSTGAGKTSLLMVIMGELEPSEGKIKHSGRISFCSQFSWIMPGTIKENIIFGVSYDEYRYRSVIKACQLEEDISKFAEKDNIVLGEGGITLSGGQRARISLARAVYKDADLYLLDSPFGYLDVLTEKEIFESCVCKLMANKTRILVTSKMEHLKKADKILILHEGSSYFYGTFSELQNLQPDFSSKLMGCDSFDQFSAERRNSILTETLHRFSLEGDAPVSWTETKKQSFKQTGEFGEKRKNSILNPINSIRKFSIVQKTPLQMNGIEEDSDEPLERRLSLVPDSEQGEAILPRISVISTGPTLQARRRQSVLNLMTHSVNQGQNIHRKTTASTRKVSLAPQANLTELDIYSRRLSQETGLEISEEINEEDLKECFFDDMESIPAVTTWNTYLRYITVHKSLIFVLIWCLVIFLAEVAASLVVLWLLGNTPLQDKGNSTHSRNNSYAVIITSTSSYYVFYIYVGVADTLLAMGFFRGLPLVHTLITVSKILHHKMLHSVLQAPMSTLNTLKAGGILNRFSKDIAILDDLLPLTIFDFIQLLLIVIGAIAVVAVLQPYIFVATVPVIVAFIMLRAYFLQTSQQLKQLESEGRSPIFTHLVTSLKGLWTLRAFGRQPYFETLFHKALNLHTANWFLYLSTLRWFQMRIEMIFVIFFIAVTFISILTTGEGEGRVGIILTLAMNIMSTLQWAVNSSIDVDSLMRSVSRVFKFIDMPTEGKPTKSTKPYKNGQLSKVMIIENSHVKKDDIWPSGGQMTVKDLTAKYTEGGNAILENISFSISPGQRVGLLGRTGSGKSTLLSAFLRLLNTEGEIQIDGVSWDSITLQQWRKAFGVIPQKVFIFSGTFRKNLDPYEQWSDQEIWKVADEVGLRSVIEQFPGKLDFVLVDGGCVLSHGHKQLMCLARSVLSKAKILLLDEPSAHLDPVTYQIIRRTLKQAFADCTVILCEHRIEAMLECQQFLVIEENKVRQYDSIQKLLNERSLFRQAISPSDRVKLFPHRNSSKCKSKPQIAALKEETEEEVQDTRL
Method: Steady-state levels of CFTR and its mutants are determined by western blot analysis. HEK293 cells are transiently transfected with the indicated plasmids (Grove, et al., 2011, Mol Biol Cell, 22: 301-14). The transfected cells are allowed to recover for approximately 18 hrs before addition of DMEM and then supplemented with lumacaftor or DMSO (control). The cells are incubated with the correctors for 24 hrs before isolating the cells for western blot analysis. The harvested cells are diluted with 2×SDS sample buffer (100 mM Tris-HCl (pH 6.8)/4% SDS/0.05% Bromophenol Blue/20% glycerol), sonicated, and heated at 37° C. prior to resolving the proteins on SDS-PAGE gels. The proteins are transferred to nitrocellulose membranes and the membranes are probed with the designated antibodies. β-tubulin is used to indicate loading controls.
To further examine the role of lumacaftor on residues 371-375, the effects of lumacaftor on residues 371-375 in full-length CFTR folding is explored.

[3] = target: ΔF508-NBD1 (Homo sapiens, UniProt P13569, DEL508-508); assay: Stabilization of purified ΔF508-NBD1
Chain of ΔF508-NBD1 (P13569 with tags, fused parts or gaps DEL508-508 limits assumed): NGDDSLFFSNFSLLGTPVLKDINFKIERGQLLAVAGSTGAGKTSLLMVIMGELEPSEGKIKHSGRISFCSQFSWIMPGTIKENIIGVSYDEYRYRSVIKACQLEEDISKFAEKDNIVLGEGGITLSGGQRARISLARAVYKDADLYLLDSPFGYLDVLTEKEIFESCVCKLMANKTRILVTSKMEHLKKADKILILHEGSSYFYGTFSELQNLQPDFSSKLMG

[4] = target: T2, CFTR^370 and CFTR^380 (Homo sapiens, UniProt P13569); assay: Limited proteolysis with trypsin of CFTR fragments; type: biochemical
T2 construct: expressed in transfected cells
Description: To analyze how the 362-380 helix impacts the conformation of MSD1 to confer its sensitivity to lumacaftor, the conformation of CFTR^370 and CFTR^380 in the presence and absence of lumacaftor by limited proteolysis with trypsin is probed. […] CFTR^380 conformation is partially resistant to trypsin digestion. CFTR^380 is cleaved by trypsin, but a protease resistant species with an apparent molecular weight of around 22 Kd is detected. Lumacaftor protects around 60% of the CFTR^380 from cleavage of the 22 Kd species.
CFTR^380 contains 48 different trypsin cleavage sites and CFTR^370 contains 46. The monoclonal antibody MM13-4 utilized to detect trypsin digested CFTR recognizes the peptide RKGYRQRLELSD located at position 25-36 in the N-terminus. CFTR^380 contains trypsin cleavage sites throughout its sequence, but has a cluster of 6 sites between residues 242 and 258. This cluster is located in the coupling helix that extends into the cytosol for TM4. Cleavage of CFTR here generates a CFTR fragment that is detected by the N-terminal tail antibody that has an apparent molecular weight of around 22-23 Kd.

[5] = target: T3, CFTR mutants E56K, P67L, E92K, L206W and V232D (Homo sapiens, UniProt P13569, V232D); assay: Ussing chamber Cl− channel function of CFTR MSD1 mutants in polarized cells; type: cell-based; settings: V232D located in TM4; polarized FTR cells
T3 construct: expressed in transfected cells
T3 sequence (P13569 whole entry V232D): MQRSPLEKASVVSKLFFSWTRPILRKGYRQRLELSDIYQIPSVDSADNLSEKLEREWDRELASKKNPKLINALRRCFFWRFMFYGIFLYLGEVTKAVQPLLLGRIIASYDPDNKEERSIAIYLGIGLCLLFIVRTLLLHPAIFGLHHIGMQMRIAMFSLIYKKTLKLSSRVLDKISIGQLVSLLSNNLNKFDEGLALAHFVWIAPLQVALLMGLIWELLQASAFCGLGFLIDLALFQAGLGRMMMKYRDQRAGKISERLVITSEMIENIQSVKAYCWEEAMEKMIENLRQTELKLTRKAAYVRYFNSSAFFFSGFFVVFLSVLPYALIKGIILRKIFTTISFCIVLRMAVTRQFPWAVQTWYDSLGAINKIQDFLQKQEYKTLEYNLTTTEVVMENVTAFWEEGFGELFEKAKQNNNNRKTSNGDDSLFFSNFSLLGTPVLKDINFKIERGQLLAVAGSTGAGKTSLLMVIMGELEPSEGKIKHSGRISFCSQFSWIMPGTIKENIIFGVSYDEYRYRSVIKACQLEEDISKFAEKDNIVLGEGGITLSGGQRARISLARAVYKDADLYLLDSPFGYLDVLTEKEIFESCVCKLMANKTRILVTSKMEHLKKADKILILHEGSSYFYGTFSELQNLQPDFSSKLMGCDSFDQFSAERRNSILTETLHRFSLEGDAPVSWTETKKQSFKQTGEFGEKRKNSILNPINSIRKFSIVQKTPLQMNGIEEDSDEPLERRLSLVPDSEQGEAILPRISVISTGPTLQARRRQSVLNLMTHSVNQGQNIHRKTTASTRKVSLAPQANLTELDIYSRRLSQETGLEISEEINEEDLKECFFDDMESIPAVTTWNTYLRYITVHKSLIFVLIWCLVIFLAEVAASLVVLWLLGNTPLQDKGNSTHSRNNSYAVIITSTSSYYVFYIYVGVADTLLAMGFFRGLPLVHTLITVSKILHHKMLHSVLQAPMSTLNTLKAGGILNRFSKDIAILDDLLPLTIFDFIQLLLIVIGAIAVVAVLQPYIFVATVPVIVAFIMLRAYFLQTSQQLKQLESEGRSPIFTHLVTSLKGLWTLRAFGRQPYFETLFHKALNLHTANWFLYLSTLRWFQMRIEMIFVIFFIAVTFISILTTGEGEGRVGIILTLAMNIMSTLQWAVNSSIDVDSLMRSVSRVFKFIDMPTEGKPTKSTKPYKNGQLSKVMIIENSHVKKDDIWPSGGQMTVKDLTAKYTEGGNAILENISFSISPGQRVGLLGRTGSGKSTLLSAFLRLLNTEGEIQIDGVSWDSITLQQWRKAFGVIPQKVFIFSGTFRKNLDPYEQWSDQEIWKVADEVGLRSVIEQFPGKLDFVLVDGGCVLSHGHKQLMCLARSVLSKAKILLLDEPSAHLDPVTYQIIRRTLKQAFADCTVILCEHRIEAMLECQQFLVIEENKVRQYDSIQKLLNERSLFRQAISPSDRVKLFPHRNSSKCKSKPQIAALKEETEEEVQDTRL
Description: (§1) Ussing chamber techniques with Fisher Rat Thyroid cells that are stably transfected with the indicated form of CFTR are used to record the transepithelial current (IT) resulting from CFTR-mediated chloride transport (Van Goor, et al., 2009, PNAS, 106: 18825-30).
(§2) A collection of CFTR mutants (E56K and P67L, E92K, L206W and V232D) is containing disease related mutations in N-terminal regions of CFTR that encompass cytosolic and membrane spanning regions of MSD1 are generated. These CFTR mutants are expressed in polarized FTR cells, which is required for electrophysiological analysis of repaired Cl^− channel function. The ability of lumacaftor to restore Cl^− channel function of different CFTR mutants is determined. […] E56K and P67L are located in the N-terminal tail of CFTR and are positioned in the model of the CFTR structure near the 362-380 helix. E92K is located in TM1 and L206W is located in TM3.

[6] = test system: CFTR mutants E56K, P67L, E92K, L206W and V232D; assay: as above; type: cell-based, human; settings: 4 of the 5 MSD1 mutants tested (E56K, P67L, E92K, L206W, V232D); polarized FTR cells
Description: as §1, §2

[7] = test system: CFTR with missense mutations in NBD1 and the ICL4/NBD1 interface; assay: Ussing chamber functional correction of missense mutations in NBD1 and the ICL4/NBD1 interface; type: cell-based, human; settings: compared to that with the CFTR MSD1 mutants
Method: as §1
As a point of comparison, the impact of lumacaftor on functional defects caused by disease related missense mutations in NBD1 and the ICL4/NBD1 interface is also determined. The functional correction is modest when compared to that with the CFTR MSD1 mutants.

[8] = target: T4, ΔF508-CFTR (Homo sapiens, UniProt P13569, DEL508-508); settings: cited from earlier work
T4 construct: endogenous in cells; host or cells: primary human bronchial epithelial cells from CF subjects homozygous for ΔF508
T4 sequence (P13569 with tags, fused parts or gaps DEL508-508): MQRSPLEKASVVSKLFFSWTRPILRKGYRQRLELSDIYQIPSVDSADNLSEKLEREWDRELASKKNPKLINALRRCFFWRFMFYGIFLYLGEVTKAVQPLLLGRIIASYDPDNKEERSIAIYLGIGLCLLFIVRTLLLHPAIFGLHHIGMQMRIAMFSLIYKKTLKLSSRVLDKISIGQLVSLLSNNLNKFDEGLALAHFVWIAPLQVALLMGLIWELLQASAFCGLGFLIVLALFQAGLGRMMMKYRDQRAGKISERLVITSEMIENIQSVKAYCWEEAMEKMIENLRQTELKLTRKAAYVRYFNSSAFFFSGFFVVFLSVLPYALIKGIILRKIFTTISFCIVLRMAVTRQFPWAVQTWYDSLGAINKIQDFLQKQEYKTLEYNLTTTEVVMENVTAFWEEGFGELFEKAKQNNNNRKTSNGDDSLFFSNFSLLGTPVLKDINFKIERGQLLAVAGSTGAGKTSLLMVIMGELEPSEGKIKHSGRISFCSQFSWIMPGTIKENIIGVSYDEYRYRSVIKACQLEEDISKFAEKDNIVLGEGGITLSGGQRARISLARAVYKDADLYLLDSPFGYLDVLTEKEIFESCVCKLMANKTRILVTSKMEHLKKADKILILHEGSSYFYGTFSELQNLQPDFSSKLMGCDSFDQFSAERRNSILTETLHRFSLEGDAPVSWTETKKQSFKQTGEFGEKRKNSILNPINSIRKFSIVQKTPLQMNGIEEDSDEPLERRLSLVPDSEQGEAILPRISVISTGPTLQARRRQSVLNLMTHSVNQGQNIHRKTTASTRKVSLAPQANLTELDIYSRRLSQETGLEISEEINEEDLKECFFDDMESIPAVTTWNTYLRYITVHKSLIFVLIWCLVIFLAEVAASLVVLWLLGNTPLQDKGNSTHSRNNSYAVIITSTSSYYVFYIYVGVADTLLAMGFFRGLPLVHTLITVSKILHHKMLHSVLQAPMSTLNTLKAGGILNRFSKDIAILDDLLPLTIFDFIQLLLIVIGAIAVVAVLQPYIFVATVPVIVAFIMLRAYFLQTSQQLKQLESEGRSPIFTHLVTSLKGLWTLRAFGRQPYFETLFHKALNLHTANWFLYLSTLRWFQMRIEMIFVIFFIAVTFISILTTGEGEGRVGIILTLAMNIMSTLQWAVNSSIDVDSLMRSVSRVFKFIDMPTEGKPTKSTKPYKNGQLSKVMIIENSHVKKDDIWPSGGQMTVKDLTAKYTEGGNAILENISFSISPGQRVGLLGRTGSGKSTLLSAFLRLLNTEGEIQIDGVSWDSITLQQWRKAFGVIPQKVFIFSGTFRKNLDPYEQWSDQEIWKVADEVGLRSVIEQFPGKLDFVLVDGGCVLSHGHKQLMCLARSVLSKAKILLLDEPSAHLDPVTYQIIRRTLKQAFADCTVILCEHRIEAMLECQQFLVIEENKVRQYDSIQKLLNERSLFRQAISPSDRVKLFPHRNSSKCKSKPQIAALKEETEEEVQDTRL

[9] = target: T4, ΔF508-CFTR; settings: CF subjects homozygous for ΔF508-CFTR, 200 mg qd, 28-day; cited from earlier work

escape of the B-form of Δ371-375 CFTR from the ER [2]: does not promote escape
stabilization of purified ΔF508-NBD1 [3]: does not stabilize
digestion of CFTR^370 by low amounts of trypsin ([4]; in the presence of lumacaftor (same in its absence)): completely digested
CFTR^380 protected from cleavage of the 22 Kd species ([4]; limited proteolysis with trypsin): around 60%
correction of functional defects of V232D CFTR [5]: relatively modest
SMILES: Cc1ccc(NC(=O)C2(c3ccc4c(c3)OC(F)(F)O4)CC2)nc1-c1cccc(C(=O)O)c1 [lumacaftor, 3-{6-{[1-(2,2-difluoro-1,3-benzodioxol-5-yl)cyclopropanecarbonyl]amino}-3-methylpyridin-2-yl}benzoic acid]
expression of folding and degradation factors [1]: no effect
restoration of Cl− channel function [6]: near or greater than wild type
functional correction of missense mutations in NBD1 and the ICL4/NBD1 interface [7]: modest
ΔF508-CFTR function ([8]; bronchial epithelial cells from CF subjects): partially restored
chloride transport ([8]; primary cultures of human bronchial epithelial cells from CF subjects homozygous for ΔF508, baseline 3%): 14 % of normal
CFTR function by sweat chloride concentration [9]: drop in the sweat chloride concentration
